The record followed here is patent publication US8013156B2 (Exelixis, Inc., priority 2003, dated 2011).

For this assay, the target named is Tie-2 (Homo sapiens, UniProt Q02763). In words: Tie-2 tyrosine kinase activity assay (luciferase/luciferin ATP consumption with pEY substrate, or 33P-ATP incorporation). Format: biochemical. The settings on record: human enzyme Tie-2. Summed up: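 Values are IC50 categories (A <50 nM to D ≥10,000 nM), with Ki obtainable by fitting rates to a tight-binding model. Assay formats: 33P-ATP phosphate transfer to adsorbed generic substrate counted by scintillation, or luciferase-detected ATP depletion using pEY.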
Tie-2, sequence (Q02763 23-1124): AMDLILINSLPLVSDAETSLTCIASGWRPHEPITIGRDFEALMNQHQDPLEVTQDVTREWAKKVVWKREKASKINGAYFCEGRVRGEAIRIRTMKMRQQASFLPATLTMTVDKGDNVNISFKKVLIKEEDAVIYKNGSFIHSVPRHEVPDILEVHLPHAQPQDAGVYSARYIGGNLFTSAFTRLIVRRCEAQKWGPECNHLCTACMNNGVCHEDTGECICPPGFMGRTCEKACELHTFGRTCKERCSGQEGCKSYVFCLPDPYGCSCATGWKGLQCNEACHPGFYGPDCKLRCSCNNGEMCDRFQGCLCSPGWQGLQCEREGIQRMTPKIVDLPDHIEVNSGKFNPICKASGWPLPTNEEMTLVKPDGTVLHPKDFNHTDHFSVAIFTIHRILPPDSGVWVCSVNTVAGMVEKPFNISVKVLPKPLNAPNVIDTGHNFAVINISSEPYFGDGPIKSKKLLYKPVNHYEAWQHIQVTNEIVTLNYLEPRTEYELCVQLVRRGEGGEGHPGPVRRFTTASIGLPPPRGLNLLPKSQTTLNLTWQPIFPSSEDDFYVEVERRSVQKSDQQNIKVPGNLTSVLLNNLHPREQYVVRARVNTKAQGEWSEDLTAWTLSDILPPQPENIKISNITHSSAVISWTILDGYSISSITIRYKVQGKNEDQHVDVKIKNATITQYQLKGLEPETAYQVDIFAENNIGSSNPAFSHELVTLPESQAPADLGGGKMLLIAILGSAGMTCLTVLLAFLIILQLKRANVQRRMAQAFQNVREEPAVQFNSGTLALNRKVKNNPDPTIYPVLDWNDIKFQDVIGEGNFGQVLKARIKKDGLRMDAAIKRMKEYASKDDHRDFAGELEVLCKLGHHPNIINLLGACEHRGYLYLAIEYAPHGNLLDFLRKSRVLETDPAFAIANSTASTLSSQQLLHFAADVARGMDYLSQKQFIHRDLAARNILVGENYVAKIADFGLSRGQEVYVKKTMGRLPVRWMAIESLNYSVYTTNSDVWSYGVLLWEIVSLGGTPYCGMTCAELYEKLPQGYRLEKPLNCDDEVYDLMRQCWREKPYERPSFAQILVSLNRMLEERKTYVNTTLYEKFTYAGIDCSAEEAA

As for `O=C(Nc1cccc(Cl)c1)N1CCN(c2ncccc2OCc2ccncc2)CC1` [Example 105, N-(3-chlorophenyl)-4-{3-[(pyridin-4-ylmethyl)oxy]pyridin-2-yl}piperazine-1-carboxamide], the half-maximal inhibitory concentration (IC50) fell in the range of 50 to 1000 nM. With `CCCNc1cc(COc2nsnc2N2CCNCC2)ccn1` [Example 106, 4-{[(4-piperazin-1-yl-1,2,5-thiadiazol-3-yl)oxy]methyl}-N-propylpyridin-2-amine] the figure was not below 10000 nM; with `CCCNc1cc(COc2nsnc2N2CCN(C(=O)Nc3cc(C(F)(F)F)cc(C(F)(F)F)c3)CC2)ccn1` [Example 107, N-[3,5-bis(trifluoromethyl)phenyl]-4-[4-({[2-(propylamino)pyridin-4-yl]methyl}oxy)-1,2,5-thiadiazol-3-yl]piperazine-1-carboxamide], 50 to 1000 nM. With `CNc1nccc(COc2nsnc2N2CCN(C(=O)Nc3cc(C(F)(F)F)cc(C(F)(F)F)c3)CC2)n1` [Example 108, N-[3,5-bis(trifluoromethyl)phenyl]-4-[4-({[2-(methylamino)pyrimidin-4-yl]methyl}oxy)-1,2,5-thiadiazol-3-yl]piperazine-1-carboxamide] the figure was less than 50 nM. `CNc1cc(COc2nsnc2N2CCNCC2)ccn1` [Example 109, N-methyl-4-{[(4-piperazin-1-yl-1,2,5-thiadiazol-3-yl)oxy]methyl}pyridin-2-amine]: the IC50 was not below 10000 nM. To `CCCCNc1cc(COc2nsnc2N2CCNCC2)ccn1` [Example 111, N-butyl-4-{[(4-piperazin-1-yl-1,2,5-thiadiazol-3-yl)oxy]methyl}pyridin-2-amine] belongs not below 10000 nM. With `CNc1cc(COc2nsnc2N2CCN(C(=O)Nc3cc(C(F)(F)F)cc(C(F)(F)F)c3)CC2)ccn1` [Example 112, N-[3,5-bis(trifluoromethyl)phenyl]-4-[4-({[2-(methylamino)pyridin-4-yl]methyl}oxy)-1,2,5-thiadiazol-3-yl]piperazine-1-carboxamide] the figure was less than 50 nM; with `CCNc1cc(COc2nsnc2N2CCN(C(=O)Nc3cc(C(F)(F)F)cc(C(F)(F)F)c3)CC2)ccn1` [Example 113, N-[3,5-bis(trifluoromethyl)phenyl]-4-[4-({[2-(ethylamino)pyridin-4-yl]methyl}oxy)-1,2,5-thiadiazol-3-yl]piperazine-1-carboxamide], less than 50 nM; with `CCCCNc1cc(COc2nsnc2N2CCN(C(=O)Nc3cc(C(F)(F)F)cc(C(F)(F)F)c3)CC2)ccn1` [Example 114, N-[3,5-bis(trifluoromethyl)phenyl]-4-[4-({[2-(butylamino)pyridin-4-yl]methyl}oxy)-1,2,5-thiadiazol-3-yl]piperazine-1-carboxamide], 50 to 1000 nM.

`O=C(Nc1cc(C(F)(F)F)cc(C(F)(F)F)c1)N1CCN(c2nsnc2OCc2ccnc(NCc3ccccc3)c2)CC1` [Example 115, N-[3,5-bis(trifluoromethyl)phenyl]-4-{4-[({2-[(phenylmethyl)amino]pyridin-4-yl}methyl)oxy]-1,2,5-thiadiazol-3-yl}piperazine-1-carboxamide] gave a concentration for half-maximal inhibition (IC50) of 50 to 1000 nM. In turn, `CC(C)Nc1nccc(COc2nsnc2N2CCN(C(=O)Nc3cc(C(F)(F)F)cc(C(F)(F)F)c3)CC2)n1` [Example 116, N-[3,5-bis(trifluoromethyl)phenyl]-4-{4-[({2-[(1-methylethyl)amino]pyrimidin-4-yl}methyl)oxy]-1,2,5-thiadiazol-3-yl}piperazine-1-carboxamide] came in with an IC50 of 50 to 1000 nM. In the case of `O=C(Nc1cc(C(F)(F)F)cc(C(F)(F)F)c1)N1CCN(c2nsnc2OCc2ccnc(NCc3ccccc3)n2)CC1` [Example 117, N-[3,5-bis(trifluoromethyl)phenyl]-4-{4-[({2-[(phenylmethyl)amino]pyrimidin-4-yl}methyl)oxy]-1,2,5-thiadiazol-3-yl}piperazine-1-carboxamide], the half-maximal inhibitory concentration (IC50) lay in the range of 50 to 1000 nM. With `O=C(Nc1cc(C(F)(F)F)cc(C(F)(F)F)c1)N1CCN(c2nsnc2OCc2ccnc(Nc3ccccc3)n2)CC1` [Example 118, N-[3,5-bis(trifluoromethyl)phenyl]-4-[4-({[2-(phenylamino)pyrimidin-4-yl]methyl}oxy)-1,2,5-thiadiazol-3-yl]piperazine-1-carboxamide] the figure was less than 50 nM. To `CN(C)CCNc1nccc(COc2nsnc2N2CCN(C(=O)Nc3cc(C(F)(F)F)cc(C(F)(F)F)c3)CC2)n1` [Example 119, N-[3,5-bis(trifluoromethyl)phenyl]-4-(4-{[(2-{[2-(dimethylamino)ethyl]amino}pyrimidin-4-yl)methyl]oxy}-1,2,5-thiadiazol-3-yl)piperazine-1-carboxamide] belongs 50 to 1000 nM; to `CN(C)CCNc1cc(COc2nsnc2N2CCN(C(=O)Nc3cc(C(F)(F)F)cc(C(F)(F)F)c3)CC2)ccn1` [Example 120, N-[3,5-bis(trifluoromethyl)phenyl]-4-(4-{[(2-{[2-(dimethylamino)ethyl]amino}pyridin-4-yl)methyl]oxy}-1,2,5-thiadiazol-3-yl)piperazine-1-carboxamide], 50 to 1000 nM; to `CCNc1nccc(COc2nsnc2N2CCN(C(=O)Nc3cc(C(F)(F)F)cc(C(F)(F)F)c3)CC2)n1` [Example 121, N-[3,5-bis(trifluoromethyl)phenyl]-4-[4-({[2-(ethylamino)pyrimidin-4-yl]methyl}oxy)-1,2,5-thiadiazol-3-yl]piperazine-1-carboxamide], less than 50 nM. As for `CCCNc1nccc(COc2nsnc2N2CCN(C(=O)Nc3cc(C(F)(F)F)cc(C(F)(F)F)c3)CC2)n1` [Example 122, N-[3,5-bis(trifluoromethyl)phenyl]-4-[4-({[2-(propylamino)pyrimidin-4-yl]methyl}oxy)-1,2,5-thiadiazol-3-yl]piperazine-1-carboxamide], the half-inhibitory concentration (IC50) lay within 50 to 1000 nM.

`O=C(Nc1cc(C(F)(F)F)cc(C(F)(F)F)c1)N1CCN(c2nsnc2OCc2ccnc(NC3CC3)n2)CC1` [Example 123, N-[3,5-bis(trifluoromethyl)phenyl]-4-[4-({[2-(cyclopropylamino)pyrimidin-4-yl]methyl}oxy)-1,2,5-thiadiazol-3-yl]piperazine-1-carboxamide] came in with a 50% inhibitory concentration (IC50) of less than 50 nM. `CC(=O)Nc1nccc(COc2nsnc2N2CCN(C(=O)Nc3cc(C(F)(F)F)cc(C(F)(F)F)c3)CC2)n1` [Example 124, 4-[4-({[2-(acetylamino)pyrimidin-4-yl]methyl}oxy)-1,2,5-thiadiazol-3-yl]-N-[3,5-bis(trifluoromethyl)phenyl]piperazine-1-carboxamide] displayed an IC50 of less than 50 nM.

`O=C(Nc1cc(COc2nsnc2N2CCN(C(=O)Nc3cc(C(F)(F)F)cc(C(F)(F)F)c3)CC2)ccn1)c1ccccc1` [Example 125, N-[3,5-bis(trifluoromethyl)phenyl]-4-{4-[({2-[(phenylcarbonyl)amino]pyridin-4-yl}methyl)oxy]-1,2,5-thiadiazol-3-yl}piperazine-1-carboxamide] gave a half-maximal inhibitory concentration (IC50) of 1000 to 10000 nM.

`O=C(Nc1nccc(COc2nsnc2N2CCN(C(=O)Nc3cc(C(F)(F)F)cc(C(F)(F)F)c3)CC2)n1)c1ccccc1` [Example 126, N-[3,5-bis(trifluoromethyl)phenyl]-4-{4-[({2-[(phenylcarbonyl)amino]pyrimidin-4-yl}methyl)oxy]-1,2,5-thiadiazol-3-yl}piperazine-1-carboxamide] gave an IC50 of 50 to 1000 nM. `O=C(Nc1cc(C(F)(F)F)cc(C(F)(F)F)c1)N1CCN(c2nsnc2OCc2ccnc(NC3CCCC3)n2)CC1` [Example 128, N-[3,5-bis(trifluoromethyl)phenyl]-4-[4-({[2-(cyclopentylamino)pyrimidin-4-yl]methyl}oxy)-1,2,5-thiadiazol-3-yl]piperazine-1-carboxamide] had an IC50 of 50 to 1000 nM. With `CC(=O)Nc1cc(COc2nsnc2N2CCN(C(=O)Nc3cc(C(F)(F)F)cc(C(F)(F)F)c3)CC2)ccn1` [Example 129, 4-[4-({[2-(acetylamino)pyridin-4-yl]methyl}oxy)-1,2,5-thiadiazol-3-yl]-N-[3,5-bis(trifluoromethyl)phenyl]piperazine-1-carboxamide] the figure was less than 50 nM; with `O=C(Nc1cc(C(F)(F)F)cc(C(F)(F)F)c1)Nc1cc(COc2nsnc2N2CCN(C(=O)Nc3cc(C(F)(F)F)cc(C(F)(F)F)c3)CC2)ccn1` [Example 130, N-[3,5-bis(trifluoromethyl)phenyl]-4-{4-[({2-[({[3,5-bis(trifluoromethyl)phenyl]amino}carbonyl)amino]pyridin-4-yl}methyl)oxy]-1,2,5-thiadiazol-3-yl}piperazine-1-carboxamide], 1000 to 10000 nM. To `COC(=O)Nc1nccc(COc2nsnc2N2CCN(C(=O)Nc3cc(C(F)(F)F)cc(C(F)(F)F)c3)CC2)n1` [Example 131, methyl {4-[({4-[4-({[3,5-bis(trifluoromethyl)phenyl]amino}carbonyl)piperazin-1-yl]-1,2,5-thiadiazol-3-yl}oxy)methyl]pyrimidin-2-yl}carbamate] belongs less than 50 nM. The compound `CCc1cccc(NC(=O)N2CCN(c3nsnc3OCc3ccnc(NC(=O)OC)c3)CC2)c1` [Example 133, methyl [4-({[4-(4-{[(3-ethylphenyl)amino]carbonyl}piperazin-1-yl)-1,2,5-thiadiazol-3-yl]oxy}methyl)pyridin-2-yl]carbamate] returned an IC50 of less than 50 nM. Consider `N#Cc1nccc(COc2nsnc2N2CCN(C(=O)Nc3cc(C(F)(F)F)cc(C(F)(F)F)c3)CC2)n1` [Example 134, N-[3,5-bis(trifluoromethyl)phenyl]-4-(4-{[(2-cyanopyrimidin-4-yl)methyl]oxy}-1,2,5-thiadiazol-3-yl)piperazine-1-carboxamide], for which the IC50 is not below 10000 nM. `Nc1nccc(COc2nccnc2N2CCN(C(=O)Nc3cc(C(F)(F)F)cc(C(F)(F)F)c3)CC2)n1` [Example 135, 4-(3-{[(2-aminopyrimidin-4-yl)methyl]oxy}pyrazin-2-yl)-N-[3,5-bis(trifluoromethyl)phenyl]piperazine-1-carboxamide] came in with an IC50 of less than 50 nM.

By IC50 is commonly meant the concentration at which inhibition is half-maximal. Low values mean greater potency, high ones weaker potency.
